Assay results published in paper PMC7531004, “Discovery of gramicidin A analogues with altered activities by multidimensional screening of a one-bead-one-compound library” (Nature Communications, 2020).
Where a SMILES comes first, the peptide text is derived from it. [ ]: non-standard residue; d: D form. The star is where a group is joined. NHCH2CH2OH = OCCN*; For = O=C*

Columns and labels:
[1] = H+/Na+ transport assay of bead-derived peptides (one-point); format: biochemical; set-up: key: relative activity; mean of two control wells = 1.00; conditions: bead-derived peptide solution, EYPC/EYPG LUVs;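 note: relative to parent gramicidin A activity set to 1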
Method in brief: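 One-point screen: peptide + pyranine-loaded LUVs, 30 min RT with vortexing, 96-well. Read-out is fluorescence intensity scaled as 100 × (Ix – I0)/(Imax – I0). Imax from Triton X-100, I0 from untreated vesicles, and the mean of the two control wells is set to 1.00.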

[2] = tested on: P388 mouse leukemia cells; conditions: 92 h
Method in brief: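 Peptide stocks diluted 250× in growth medium; P388 cells 1 × 10^4 cells/mL final; 37 °C, 5% CO2, 92 h. WST-1 + 1-methoxy PMS, 4 h, A415. Output: % viability.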

[3] = tested on: Streptococcus pyogenes SSI-9; assay: Antibacterial activity assay of bead-derived peptides (three concentrations); format: cell-based; set-up: key: +++: inhibition by the 640-fold diluted peptide solution; ++: inhibition by the 160-fold diluted solution; +: inhibition by the 40-fold diluted solution; -: no inhibition; conditions: S. pyogenes, bead-derived peptide solution, three concentrations
Method in brief: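 Growth inhibition scored visually as precipitated bacteria after 37 °C, 18 h incubation. Streptococcus pyogenes SSI-9 inoculum of 2 × 10^5 CFU in Ca2+/Mg2+-adjusted Mueller Hinton broth plus 5% laked horse blood; peptides tested at three levels: stock, 4-fold and 16-fold DMSO dilutions.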

For `CNC(=O)C[C@@H](NC(=O)[C@@H](NC(=O)[C@@H](CC(C)C)NC(=O)[C@H](C)NC(=O)[C@H](NC(=O)[C@H](C)NC(=O)CNC(=O)[C@@H](NC=O)C(C)C)C(C)C)C(C)C)C(=O)N[C@@H](Cc1c[nH]c2ccccc12)C(=O)N[C@H](CC(C)C)C(=O)N[C@@H](Cc1c[nH]c2ccccc12)C(=O)N[C@H](CC(C)C)C(=O)N[C@@H](Cc1c[nH]c2ccccc12)C(=O)N[C@@H](C(=O)N[C@@H](Cc1c[nH]c2ccccc12)C(=O)NCCO)C(C)C` [compound 3800] (For-VGA[dV]A[dL]V[dD](NHMe)W[dL]W[dL]W[dV]W-NHCH2CH2OH), the “H+/Na+ transport activity normalized against the value of 1 (1.00)” value (“H+/Na+ transport activity normalized” below) [1] was 1.23, the cell viability/% [2] was 100.0% and the antibacterial activity [3] was “-”.

In the case of `CC(C)C[C@@H](NC(=O)[C@H](C)NC(=O)CNC(=O)[C@@H](NC=O)C(C)C)C(=O)N[C@@H](C)C(=O)N[C@@H](C(=O)N[C@H](C(=O)N[C@H](CC(C)C)C(=O)N[C@@H](Cc1c[nH]c2ccccc12)C(=O)N[C@H](CC(C)C)C(=O)N[C@@H](Cc1c[nH]c2ccccc12)C(=O)N[C@@H](C(=O)N[C@@H](Cc1c[nH]c2ccccc12)C(=O)N[C@H](CC(C)C)C(=O)N[C@@H](Cc1c[nH]c2ccccc12)C(=O)NCCO)C(C)C)C(C)C)C(C)C` [compound 3847] (For-VGA[dL]A[dV]V[dL]W[dL]W[dV]W[dL]W-NHCH2CH2OH), the “H+/Na+ transport activity normalized” value [1] is reported as 1.22, the cell viability/% [2] is reported as 0.0% and the antibacterial activity [3] is reported as “+”.

For `CNC(=O)C[C@@H](NC(=O)[C@H](Cc1c[nH]c2ccccc12)NC(=O)[C@H](NC(=O)[C@H](Cc1c[nH]c2ccccc12)NC(=O)[C@@H](CC(C)C)NC(=O)[C@H](Cc1c[nH]c2ccccc12)NC(=O)[C@@H](CC(C)C)NC(=O)[C@@H](NC(=O)[C@@H](CC(C)C)NC(=O)[C@H](C)NC(=O)[C@@H](CC(C)C)NC(=O)[C@H](C)NC(=O)CNC(=O)[C@@H](NC=O)C(C)C)C(C)C)C(C)C)C(=O)N[C@@H](Cc1c[nH]c2ccccc12)C(=O)NCCO` [compound 3911] (For-VGA[dL]A[dL]V[dL]W[dL]W[dV]W[dD](NHMe)W-NHCH2CH2OH), the “H+/Na+ transport activity normalized” value [1] was 1.00, the cell viability/% [2] was 100.0% and the antibacterial activity [3] was “-”.

For `CNC(=O)C[C@@H](NC(=O)[C@@H](NC(=O)[C@@H](CC(C)C)NC(=O)[C@H](C)NC(=O)[C@@H](CC(C)C)NC(=O)[C@H](C)NC(=O)CNC(=O)[C@@H](NC=O)C(C)C)C(C)C)C(=O)N[C@@H](Cc1c[nH]c2ccccc12)C(=O)N[C@H](CC(C)C)C(=O)N[C@@H](Cc1c[nH]c2ccccc12)C(=O)N[C@H](CC(C)C)C(=O)N[C@@H](Cc1c[nH]c2ccccc12)C(=O)N[C@@H](C(=O)N[C@@H](Cc1c[nH]c2ccccc12)C(=O)NCCO)[C@H](C)O` [compound 3929] (For-VGA[dL]A[dL]V[dD](NHMe)W[dL]W[dL]W[dT]W-NHCH2CH2OH), the “H+/Na+ transport activity normalized” value [1] was 1.14, the cell viability/% [2] was 100.0% and the antibacterial activity [3] was “-”.

With `CC(C)C[C@@H](NC(=O)[C@H](C)NC(=O)CNC(=O)[C@@H](NC=O)C(C)C)C(=O)N[C@@H](C)C(=O)N[C@H](CC(C)C)C(=O)N[C@H](C(=O)N[C@@H](C(=O)N[C@@H](Cc1c[nH]c2ccccc12)C(=O)N[C@@H](C(=O)N[C@@H](Cc1c[nH]c2ccccc12)C(=O)N[C@@H](C(=O)N[C@@H](Cc1c[nH]c2ccccc12)C(=O)N[C@H](CC(C)C)C(=O)N[C@@H](Cc1c[nH]c2ccccc12)C(=O)NCCO)C(C)C)[C@H](C)O)C(C)C)C(C)C` [compound 4031] (For-VGA[dL]A[dL]V[dV]W[dT]W[dV]W[dL]W-NHCH2CH2OH) the “H+/Na+ transport activity normalized” value [1] was 1.05, the cell viability/% [2] was 92.4% and the antibacterial activity [3] was “-”.

For `CNC(=O)C[C@@H](NC(=O)[C@@H](NC(=O)[C@H](NC(=O)[C@H](C)NC(=O)[C@H](NC(=O)[C@H](C)NC(=O)CNC(=O)[C@@H](NC=O)C(C)C)C(C)C)C(C)C)C(C)C)C(=O)N[C@@H](Cc1c[nH]c2ccccc12)C(=O)N[C@@H](C(=O)N[C@@H](Cc1c[nH]c2ccccc12)C(=O)N[C@H](CC(C)C)C(=O)N[C@@H](Cc1c[nH]c2ccccc12)C(=O)N[C@H](CC(C)C)C(=O)N[C@@H](Cc1c[nH]c2ccccc12)C(=O)NCCO)C(C)C` [compound 4049] (For-VGA[dV]A[dV]V[dD](NHMe)W[dV]W[dL]W[dL]W-NHCH2CH2OH), the “H+/Na+ transport activity normalized” value [1] was 1.15, the cell viability/% [2] was 100.0% and the antibacterial activity [3] was “-”.

For `CC(C)C[C@@H](NC(=O)[C@H](C)NC(=O)[C@H](NC(=O)[C@H](C)NC(=O)CNC(=O)[C@@H](NC=O)C(C)C)C(C)C)C(=O)N[C@H](C(=O)N[C@@H](C(=O)N[C@@H](Cc1c[nH]c2ccccc12)C(=O)N[C@H](CC(C)C)C(=O)N[C@@H](Cc1c[nH]c2ccccc12)C(=O)N[C@@H](C(=O)N[C@@H](Cc1c[nH]c2ccccc12)C(=O)N[C@@H](C(=O)N[C@@H](Cc1c[nH]c2ccccc12)C(=O)NCCO)C(C)C)C(C)C)[C@H](C)O)C(C)C` [compound 4126] (For-VGA[dV]A[dL]V[dT]W[dL]W[dV]W[dV]W-NHCH2CH2OH), the “H+/Na+ transport activity normalized” value [1] was 1.06, the cell viability/% [2] was 100.0% and the antibacterial activity [3] was “-”.

In the case of `CC(C)C[C@@H](NC(=O)[C@H](C)NC(=O)CNC(=O)[C@@H](NC=O)C(C)C)C(=O)N[C@@H](C)C(=O)N[C@@H](C(=O)N[C@H](C(=O)N[C@H](CC(C)C)C(=O)N[C@@H](Cc1c[nH]c2ccccc12)C(=O)N[C@H](CC(C)C)C(=O)N[C@@H](Cc1c[nH]c2ccccc12)C(=O)N[C@@H](C(=O)N[C@@H](Cc1c[nH]c2ccccc12)C(=O)N[C@H](CC(C)C)C(=O)N[C@@H](Cc1c[nH]c2ccccc12)C(=O)NCCO)[C@H](C)O)C(C)C)C(C)C` [compound 4128] (For-VGA[dL]A[dV]V[dL]W[dL]W[dT]W[dL]W-NHCH2CH2OH), the “H+/Na+ transport activity normalized” value [1] is reported as 1.03, the cell viability/% [2] is reported as 100.0% and the antibacterial activity [3] is reported as “+”.

For `CC(C)C[C@@H](NC(=O)[C@H](Cc1c[nH]c2ccccc12)NC(=O)[C@H](NC(=O)[C@H](Cc1c[nH]c2ccccc12)NC(=O)[C@@H](CC(C)C)NC(=O)[C@@H](NC(=O)[C@H](NC(=O)[C@H](C)NC(=O)[C@H](NC(=O)[C@H](C)NC(=O)CNC(=O)[C@@H](NC=O)C(C)C)[C@H](C)O)C(C)C)C(C)C)C(C)C)C(=O)N[C@@H](Cc1c[nH]c2ccccc12)C(=O)N[C@@H](C(=O)N[C@@H](Cc1c[nH]c2ccccc12)C(=O)NCCO)C(C)C` [compound 4187] (For-VGA[dT]A[dV]V[dL]W[dV]W[dL]W[dV]W-NHCH2CH2OH), the “H+/Na+ transport activity normalized” value [1] was 1.32, the cell viability/% [2] was 95.1% and the antibacterial activity [3] was “-”.

In the case of `CC(C)C[C@@H](NC(=O)[C@H](C)NC(=O)[C@H](NC(=O)[C@H](C)NC(=O)CNC(=O)[C@@H](NC=O)C(C)C)C(C)C)C(=O)N[C@H](C(=O)N[C@H](CC(C)C)C(=O)N[C@@H](Cc1c[nH]c2ccccc12)C(=O)N[C@H](CC(C)C)C(=O)N[C@@H](Cc1c[nH]c2ccccc12)C(=O)N[C@@H](C(=O)N[C@@H](Cc1c[nH]c2ccccc12)C(=O)N[C@H](CC(C)C)C(=O)N[C@@H](Cc1c[nH]c2ccccc12)C(=O)NCCO)[C@H](C)O)C(C)C` [compound 4209] (For-VGA[dV]A[dL]V[dL]W[dL]W[dT]W[dL]W-NHCH2CH2OH), the “H+/Na+ transport activity normalized” value [1] is reported as 1.33, the cell viability/% [2] is reported as 96.2% and the antibacterial activity [3] is reported as “-”.
